In US20250268903A1, “RXFP1 AGONISTS” (BRISTOL-MYERS SQUIBB COMPANY, priority 2021, published 2025) one finds EC50 data, which are given here for 18 compounds.

Molecules are shown by their SMILES.

The target of the experiment is T1, human RXFP1 (Homo sapiens, UniProt Q9HBX9).
T1 construct: expressed in transfected cells
T1 sequence (Q9HBX9 1-757): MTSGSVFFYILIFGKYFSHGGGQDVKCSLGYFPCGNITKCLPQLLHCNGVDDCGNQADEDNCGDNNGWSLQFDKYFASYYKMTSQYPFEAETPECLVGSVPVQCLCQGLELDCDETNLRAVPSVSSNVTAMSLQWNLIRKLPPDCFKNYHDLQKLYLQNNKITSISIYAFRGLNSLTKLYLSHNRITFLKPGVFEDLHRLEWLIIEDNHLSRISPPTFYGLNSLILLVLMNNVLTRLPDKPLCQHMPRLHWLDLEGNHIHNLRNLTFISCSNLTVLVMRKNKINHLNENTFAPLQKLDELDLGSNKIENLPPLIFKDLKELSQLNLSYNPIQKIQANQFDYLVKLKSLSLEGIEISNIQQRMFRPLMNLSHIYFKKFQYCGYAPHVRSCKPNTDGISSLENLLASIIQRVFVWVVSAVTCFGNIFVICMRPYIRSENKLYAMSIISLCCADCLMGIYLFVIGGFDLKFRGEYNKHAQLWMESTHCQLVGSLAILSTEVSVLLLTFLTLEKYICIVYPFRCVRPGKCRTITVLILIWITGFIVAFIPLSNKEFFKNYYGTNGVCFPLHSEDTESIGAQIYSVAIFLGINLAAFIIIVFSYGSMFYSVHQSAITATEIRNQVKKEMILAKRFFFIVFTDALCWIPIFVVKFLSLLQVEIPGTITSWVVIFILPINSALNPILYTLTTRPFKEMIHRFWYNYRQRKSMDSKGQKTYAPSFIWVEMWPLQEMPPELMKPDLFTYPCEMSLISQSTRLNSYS
The experiment is described as follows: hRXFP1 HEK293 cAMP assay (HTRF). The class given is cell-based. Conditions: HEK293 cells stably expressing human RXFP1, 30 min at room temperature. Summed up: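 HEK293 cells stably expressing human RXFP1 (1500 cells/well) in HBSS/20 mM HEPES/0.05% BSA/0.5 mM IBMX. Compounds were tested at 0.010 nM–50 μM final (2% DMSO) for 30 min at room temperature. cAMP was measured by HTRF and values derived by 4-parameter logistic fit.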
On to `COc1ccc(C2CCCC(NC(=O)C3CCOCC3)C2)cc1C(=O)N[C@@H]1C2CCC(/C2=C/C(F)(F)F)[C@@H]1C(=O)Nc1ccc(F)c(C(F)(F)F)c1` (single isomer, unassigned) [Example 49], for which a half-maximal response (EC50) required 833 nM.

For the compound `COc1ccc(/C=C/C(=O)O)cc1C(=O)N[C@H]1[C@@H](C(=O)Nc2ccc(F)c(C(F)(F)F)c2)[C@H]2CC[C@@H]1/C2=C\C(F)(F)F` [Example 8, (E)-3-(3-(((1R,2R,3S,4R,Z)-3-((4-fluoro-3-(trifluoromethyl)phenyl)carbamoyl)-7-(2,2,2-trifluoroethylidene)bicyclo[2.2.1]heptan-2-yl)carbamoyl)-4-methoxyphenyl) acrylic acid], the EC50 (in general, the concentration needed to bring the measured effect to its halfway point) was determined as 309 nM.

Turning to `COc1ccc(C(=O)N2CCC3(CC2)COC3)cc1C(=O)N[C@H]1[C@@H](C(=O)Nc2ccc(F)c(C(F)(F)F)c2)[C@H]2CC[C@@H]1/C2=C\C1CC1` [Example 246, (1R,2S,3R, 4R,7Z)-7-(cyclopropyl-methylidene)-N-[4-fluoro-3-(trifluoromethyl)phenyl]-3-(2-methoxy-5-{2-oxa-7-azaspiro[3.5]nonane-7-carbonyl}benzamido) bicyclo[2.2.1] heptane-2-carboxamide], a half-maximal response (EC50) required 13.7 nM.

As for `COc1ccc(CCCNC(=O)OC(C)(C)C)cc1C(=O)N[C@@H]1C2CCC(/C2=C/C(F)(F)F)[C@@H]1C(=O)Nc1ccc(F)c(C(F)(F)F)c1` (stereo partly drawn) [Example 109], the EC50 stood at 2080 nM.

Compound `COc1ccc(C2CC2C(=O)N2CCC(O)CC2)cc1C(=O)N[C@H]1[C@@H](C(=O)Nc2ccc(F)c(C(F)(F)F)c2)[C@H]2CC[C@@H]1/C2=C\C1CC1` (single isomer, unassigned) [Example 324] came in with an EC50 of 4.95 nM.

For `COc1ccc(S(=O)(=O)N2CCN[C@@H](CO)C2)cc1C(=O)NC1C2CCC(/C2=C/C(F)(F)F)[C@@H]1C(=O)Nc1ccc(F)c(C(F)(F)F)c1` (stereo partly drawn) [Example 204, (2S,3R,7Z)-N-[4-fluoro-3-(trifluoromethyl)phe-nyl]-3-(5-{[(3R)-3-(hydroxymethyl)piper-azin-1-yl]sulfonyl}-2-methoxybenzamido)-7-(2,2,2-trifluoroethylidene)bi-cyclo[2.2.1]heptane-2-carboxamide], the midpoint of the response, the EC50, lay at 341 nM.

In turn, `COc1ccc(COC2=NOC3CC(O)CC23)cc1C(=O)N[C@H]1[C@@H](C(=O)Nc2ccc(F)c(C(F)(F)F)c2)[C@H]2CC[C@@H]1/C2=C\C1CC1` (stereo partly drawn) [Example 301, (1R,2S,3R,4R,7Z)-7-(cyclopropylmethylidene)-N-[4-fluoro-3-(trifluoromethyl)phenyl]-3-{5-[({5-hydroxy-3aH,4H,5H,6H,6aH cyclopenta[d][1,2]oxazol-3-yl}oxy)methyl]-2-methoxybenzamido} bicyclo[2.2.1] heptane-2-carboxamide] yielded a 50% effective concentration (EC50) of 21.6 nM.

`COc1cc(COC2(CO)CC2)ccc1C(=O)N[C@H]1[C@@H](C(=O)Nc2ccc(F)c(C(F)(F)F)c2)[C@H]2CC[C@@H]1/C2=C\C1CC1` [Example 14, (1R,2S,3R,4R,Z)-7-(cyclopropylmethylene)-N-(4-fluoro-3-(trifluoromethyl)phenyl)-3-(4-((1-(hydroxymethyl)cyclopropoxy)methyl)-2-methoxybenzamido) bicyclo[2.2.1]heptane-2-carboxamide] registered a 50% effective concentration (EC50) of 13 nM.

Regarding `COc1ccc(C(=O)N2CCC(S(C)(=O)=O)C2)cc1C(=O)N[C@H]1[C@@H](C(=O)Nc2ccc(F)c(C(F)(F)F)c2)[C@H]2CC[C@@H]1/C2=C\C1CC1` (stereo partly drawn) [Example 257, (1R,2S,3R,4R,7Z)-7-(cyclopropylmethyl-idene)-N-[4-fluoro-3-(trifluoromethyl)phenyl]-3-[5-(3-methanesulfonyl-pyrrolidine-1-carbonyl)-2-methoxybenzamido] bicyclo[2.2.1]heptane-2-carboxamide], the EC50 stood at 90.8 nM.

Compound `COc1ccc(C2CCCCC2O)cc1C(=O)N[C@@H]1C2CCC(/C2=C/C(F)(F)F)[C@@H]1C(=O)Nc1ccc(F)c(C(F)(F)F)c1` (mixture of isomers) [Example 59] came in with a concentration giving a half-maximal response (EC50) of 1270 nM.

Turning to `COc1ccc(CCCN(C(=O)OC(C)(C)C)C2CCC2)cc1C(=O)N[C@@H]1C2CCC(/C2=C/C(F)(F)F)[C@@H]1C(=O)Nc1ccc(F)c(C(F)(F)F)c1` (stereo partly drawn) [Example 120], the 50% effective concentration (EC50) was 304 nM.

Take `COc1c(F)cc(C(=O)NCC2(S(C)(=O)=O)CC2)cc1C(=O)N[C@H]1[C@@H](C(=O)N[C@H](C)C2(C)CC2)[C@H]2CC[C@@H]1/C2=C\c1cnc(C(F)(F)F)s1` [Example 373, 5-fluoro-N1-[(1-methanesulfonyl-cyclopropyl)methyl]-4-methoxy-N3-[(1R,2R,3S,4R,7Z)-3-{[(1R)-1-(1-methylcyclopropyl)ethyl]carbamoyl}-7-{[2-(trifluoromethyl)-1,3-thiazol-5-yl]methylidene}bicyclo[2.2.1]heptan-2-yl]benzene-1,3-dicarboxamide]: the EC50 came out at 3.6 nM.

`CCOC(=O)/C(C)=C/c1ccc(OC)c(C(=O)N[C@H]2[C@@H](C(=O)Nc3ccc(F)c(C(F)(F)F)c3)[C@H]3CC[C@@H]2/C3=C\C(F)(F)F)c1` [Example 305, ethyl (2E)-3-(3-{[(1R,2R,3S,4R,7Z)-3-{[4-fluoro-3-(trifluoromethyl)phenyl]carbamoyl}-7-(2,2,2-trifluoroethylidene)bicyclo[2.2.1]heptan-2-yl]carbamoyl}-4-methoxyphenyl)-2-methylprop-2-enoate] had a 50% effective concentration (EC50) of 744 nM.

For the compound `COc1ccc(Nc2ccccc2)cc1C(=O)N[C@H]1[C@@H](C(=O)Nc2ccc(F)c(C(F)(F)F)c2)[C@H]2CC[C@@H]1/C2=C\C1CC1` [Example 2, (1R,2S,3R,4R,Z)-7-(cyclopropylmethylene)-N-(4-fluoro-3-(trifluoromethyl)phenyl)-3-(2-methoxy-5-(phenylamino)benzamido) bicyclo[2.2.1]heptane-2-carboxamide], the concentration for a half-maximal effect (EC50) was 280 nM.

In turn, `COc1ccc(COC2C[C@@H](O)[C@@H](O)C2)cc1C(=O)N[C@H]1[C@@H](C(=O)Nc2ccc(F)c(C(F)(F)F)c2)[C@H]2CC[C@@H]1/C2=C\C1CC1` (stereo partly drawn) [Example 297, (1R,2S,3R,4R,7Z)-7-(cyclopropylmethylidene)-3-[5-({[(3R,4S)-3,4-dihydroxycyclopentyl]oxy}methyl)-2-methoxybenzamido]-N-[4-fluoro-3-(trifluoromethyl)phenyl]bicyclo[2.2.1]heptane-2-carboxamide] registered an EC50 of 8.3 nM.

In the case of `COc1ccc(S(=O)(=O)N2CCN(C(=O)OC(C)(C)C)[C@H](CO)C2)cc1C(=O)N[C@H]1[C@@H](C(=O)Nc2ccc(F)c(C(F)(F)F)c2)[C@H]2CC[C@@H]1/C2=C\C(F)(F)F` [Example 225, tert-butyl (2S)-4-(3-{[(1R,2R,3S,4R,7Z)-3-{[4-fluoro-3-(trifluoromethyl)phenyl]carbamoyl}-7-(2,2,2-trifluoroethylidene)bicyclo[2.2.1]heptan-2-yl]carbamoyl}-4-methoxy-benzenesulfonyl-2-(hydroxymethyl)piperazine-1-carboxylate], the concentration for a half-maximal effect (EC50) came to 4270 nM.

As to `COc1ccc(/C=C/C(=O)N2CCC(C(F)(F)F)CC2)cc1C(=O)N[C@H]1[C@@H](C(=O)Nc2ccc(F)c(C(F)(F)F)c2)[C@H]2CC[C@@H]1/C2=C\C1CC1` [Example 315], the EC50 came out at 91.2 nM.

The compound `CCOC(=O)C1CCCC(c2ccc(OC)c(C(=O)N[C@@H]3C4CCC(/C4=C/C(F)(F)F)[C@@H]3C(=O)Nc3ccc(F)c(C(F)(F)F)c3)c2)C1` (stereo partly drawn) [Example 142] registered an EC50 of 167 nM.
